According to paper PMC9697930 (International Journal of Molecular Sciences, 2022):

Legend:
MDCKII-par cells = assay: Accumulation assay in control parent cells; type: cell-based, Canine
Method: (§1) The conduction of accumulation assays followed the slightly changed protocol described previously. In the study, MDCKII-par, MDCKII-ABCB1, MDCKII-ABCC1, MDCKII-ABCG2, and primary explants were seeded into 12-well plates in variant densities, 22.0 × 10^4, 15.0 × 10^4, 25.0 × 10^4, 22.0 × 10^4, and 15.0 × 10^4 cells/well, respectively. After 24 h incubation, two washing steps with 1 × PBS were applied. […] The cells were then incubated under standard conditions for 30 min. Next steps included placing the plates on ice, washing the cells with ice-cold 1 × PBS two-times, and detaching the cells with the ice-cold 10 × trypsin without phenol red. Following trypsinization, cells were resuspended in 1 × PBS containing 2% FBS. Subsequently, cell suspensions were transferred into the test tubes and kept on ice. The fluorescence in cells was measured immediately after the collection of their suspensions using flow cytometer Sony SA3800 Spectral Cell Analyzer (Sony Biotechnology, San Jose, CA, USA). SA3800 software (Sony Biotechnology, San Jose, CA, USA) was used to evaluate the data.

MCF-7 cells = assay: MTT viability experiment; type: cell-based, Human; settings: 0.5 µM, 48 h
Method: (§2) The viability MTT assay was employed in several experimental sets, including induction studies, comparative viability assays, and drug combinations. First, 1.3 × 10^4 (MDCKII sublines), 1.2 × 10^4 (A431 sublines), 1.5 × 10^4 (MCF-7), and 1.0 × 10^4 (primary NSCLC explants) cells were seeded in 96-well plates. After seeding, cells were left to refresh in incubator for 24 h. Secondly, the medium was removed, and the serial dilutions of the drugs or drug combinations were added to the cells. Next to these variants, a medium with 40% DMSO and vehicle-containing media were tested as nonviable and unaffected viability controls, respectively. After an additional 48 h of incubation, the cells were washed with 1 × PBS and then treated with 1 mg/mL MTT solution in Opti-MEM. Subsequently, cells were incubated for 60 min under standard conditions. After MTT treatment, generated formazan crystals were solubilized with DMSO for 10 min. Wavelengths of 570 nm (formazan) and 690 nm (background) were used for absorbance measurements using a microplate reader Infinite 200 Pro NanoQuant (Tecan, Männedorf, Switzerland).

ABCB1 [1] = target: T1, ABCB1 (Homo sapiens, UniProt P08183); design: expressed in transfected cells; host or cells: MDCKII (canine kidney) subline MDCKII-ABCB1, gift of Dr. Alfred Schinkel; settings: Abcb1-knockout mice, MDCKII-ABCB1 cells; cited from earlier work
T1 sequence (P08183 whole entry): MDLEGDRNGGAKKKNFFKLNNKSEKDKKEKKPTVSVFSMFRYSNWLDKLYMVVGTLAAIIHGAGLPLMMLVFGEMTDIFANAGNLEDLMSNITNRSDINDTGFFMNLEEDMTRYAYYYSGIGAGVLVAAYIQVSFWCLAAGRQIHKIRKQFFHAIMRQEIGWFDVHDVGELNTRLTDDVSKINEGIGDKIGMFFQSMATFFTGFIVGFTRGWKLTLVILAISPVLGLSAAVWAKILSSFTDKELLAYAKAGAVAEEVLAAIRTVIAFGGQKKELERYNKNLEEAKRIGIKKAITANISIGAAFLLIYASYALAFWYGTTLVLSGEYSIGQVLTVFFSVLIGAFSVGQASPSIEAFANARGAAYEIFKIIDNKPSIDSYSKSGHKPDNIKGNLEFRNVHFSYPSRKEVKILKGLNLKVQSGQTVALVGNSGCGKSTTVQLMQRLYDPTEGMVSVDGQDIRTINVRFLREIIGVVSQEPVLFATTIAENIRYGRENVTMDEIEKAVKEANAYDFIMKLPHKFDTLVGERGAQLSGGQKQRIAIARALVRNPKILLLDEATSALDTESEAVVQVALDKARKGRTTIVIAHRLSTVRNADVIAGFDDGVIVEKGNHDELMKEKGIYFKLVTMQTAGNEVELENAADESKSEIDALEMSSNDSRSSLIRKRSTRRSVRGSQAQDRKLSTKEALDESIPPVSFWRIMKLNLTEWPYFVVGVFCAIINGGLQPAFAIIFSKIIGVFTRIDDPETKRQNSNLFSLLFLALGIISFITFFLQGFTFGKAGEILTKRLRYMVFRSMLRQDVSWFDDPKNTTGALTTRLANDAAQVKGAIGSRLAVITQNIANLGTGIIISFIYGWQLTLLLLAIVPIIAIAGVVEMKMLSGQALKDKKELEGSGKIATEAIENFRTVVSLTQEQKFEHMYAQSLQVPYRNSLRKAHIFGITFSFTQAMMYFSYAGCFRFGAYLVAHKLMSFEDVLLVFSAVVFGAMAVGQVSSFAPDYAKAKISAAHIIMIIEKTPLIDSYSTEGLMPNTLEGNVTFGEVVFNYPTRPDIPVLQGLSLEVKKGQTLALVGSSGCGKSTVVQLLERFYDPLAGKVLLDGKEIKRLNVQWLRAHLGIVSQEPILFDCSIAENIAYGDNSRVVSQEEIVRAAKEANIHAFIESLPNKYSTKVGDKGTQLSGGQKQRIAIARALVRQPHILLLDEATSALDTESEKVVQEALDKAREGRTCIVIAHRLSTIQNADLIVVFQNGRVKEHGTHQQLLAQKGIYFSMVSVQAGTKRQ

MTT proliferation assay = type: cell-based, Canine; settings: dog, MDCKII-ABCB1 cells, comparative MTT, read-out: antiproliferative IC50
Method: as §2

ABCG2 [2] = target: T2, ABCG2 (Homo sapiens, UniProt Q9UNQ0); assay: Accumulation assay with mitoxantrone in MDCKII-ABCG2 cells; type: cell-based; settings: normalized to Ko143, read-out: ABCG2 inhibition IC50
T2 construct: expressed in transfected cells; host or cells: MDCKII (canine kidney) subline MDCKII-ABCG2, gift of Dr. Alfred Schinkel
T2 sequence (Q9UNQ0 whole entry): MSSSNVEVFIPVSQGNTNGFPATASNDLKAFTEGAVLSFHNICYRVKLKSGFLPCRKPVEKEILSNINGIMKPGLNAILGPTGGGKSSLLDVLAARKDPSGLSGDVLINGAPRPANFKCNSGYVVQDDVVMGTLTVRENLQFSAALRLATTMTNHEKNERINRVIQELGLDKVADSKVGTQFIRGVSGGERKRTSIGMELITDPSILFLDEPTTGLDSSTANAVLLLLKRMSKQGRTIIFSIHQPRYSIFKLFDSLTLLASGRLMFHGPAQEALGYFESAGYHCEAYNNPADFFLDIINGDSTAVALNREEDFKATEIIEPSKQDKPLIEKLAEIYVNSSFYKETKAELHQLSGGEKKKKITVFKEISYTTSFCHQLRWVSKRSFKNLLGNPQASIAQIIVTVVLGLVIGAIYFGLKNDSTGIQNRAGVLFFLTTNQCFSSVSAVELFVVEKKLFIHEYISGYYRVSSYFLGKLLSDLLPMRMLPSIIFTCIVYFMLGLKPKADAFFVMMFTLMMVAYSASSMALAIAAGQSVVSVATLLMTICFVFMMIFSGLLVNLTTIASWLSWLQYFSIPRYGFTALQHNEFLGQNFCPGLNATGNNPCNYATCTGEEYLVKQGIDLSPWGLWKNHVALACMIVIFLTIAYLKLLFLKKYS
Method: as §1

A431-ABCB1 = assay: MTT proliferation assay; type: cell-based; settings: Homo sapiens, comparative MTT, 48 h, read-out: antiproliferative IC50
Method: as §2

ABCG2 [3] = settings: 12-days exposure; MCF-10A; cited from earlier work
[4] = tested on: patient-derived NSCLC explants; assay: Accumulation of mitoxantrone and daunorubicin in ex vivo explants; type: cell-based, human; settings: 5 µM talazoparib, 2 µM Ko143, 25 µM MK571
Text: NSCLC specimens from lung lobectomies were donated by patients at the Department of Cardiac Surgery, University Hospital Hradec Kralove. All the patients signed the informed consent; its formulation was approved by the University Hospital Ethics Committee (study no. 202002 […]). The NSCLC malignant tissues were excised from lung lobes by the pathologist immediately after the surgery. Then, NSCLC primary explants were generated according to the established protocols. First, the tumor tissues were cut into small pieces by scalpel. Then, the cells were released from the tissue by the 0.1% collagenase in 1 × MEM at 37 °C for 30 min. Subsequently, 1% BSA in MEM (v/v) was added, and cells were filtered through a 40 μm pore-sized cell strainer. The resulting solution was centrifuged at 200 × g for 5 min and the pellet was resuspended in 1% BSA in MEM. The centrifugation (100 × g for 10 min) in Ficoll Paque Plus was used for removing biological impurities such as cell debris, etc. Next, the NSCLC cells were collected and transferred into c-based media. The additional centrifugation (200 × g for 5 min) was applied to remove the traces of Ficoll solution. […] The fluorescence in cells was measured immediately after the collection of their suspensions using flow cytometer Sony SA3800 Spectral Cell Analyzer (Sony Biotechnology, San Jose, CA, USA). […]

[5] = in-human mass-balance study; cited from earlier work
ABCC1 = ABCC1 (Homo sapiens, UniProt P33527); settings: 12-days exposure; MCF-10A; cited from earlier work
ABCC1, sequence (P33527 whole entry): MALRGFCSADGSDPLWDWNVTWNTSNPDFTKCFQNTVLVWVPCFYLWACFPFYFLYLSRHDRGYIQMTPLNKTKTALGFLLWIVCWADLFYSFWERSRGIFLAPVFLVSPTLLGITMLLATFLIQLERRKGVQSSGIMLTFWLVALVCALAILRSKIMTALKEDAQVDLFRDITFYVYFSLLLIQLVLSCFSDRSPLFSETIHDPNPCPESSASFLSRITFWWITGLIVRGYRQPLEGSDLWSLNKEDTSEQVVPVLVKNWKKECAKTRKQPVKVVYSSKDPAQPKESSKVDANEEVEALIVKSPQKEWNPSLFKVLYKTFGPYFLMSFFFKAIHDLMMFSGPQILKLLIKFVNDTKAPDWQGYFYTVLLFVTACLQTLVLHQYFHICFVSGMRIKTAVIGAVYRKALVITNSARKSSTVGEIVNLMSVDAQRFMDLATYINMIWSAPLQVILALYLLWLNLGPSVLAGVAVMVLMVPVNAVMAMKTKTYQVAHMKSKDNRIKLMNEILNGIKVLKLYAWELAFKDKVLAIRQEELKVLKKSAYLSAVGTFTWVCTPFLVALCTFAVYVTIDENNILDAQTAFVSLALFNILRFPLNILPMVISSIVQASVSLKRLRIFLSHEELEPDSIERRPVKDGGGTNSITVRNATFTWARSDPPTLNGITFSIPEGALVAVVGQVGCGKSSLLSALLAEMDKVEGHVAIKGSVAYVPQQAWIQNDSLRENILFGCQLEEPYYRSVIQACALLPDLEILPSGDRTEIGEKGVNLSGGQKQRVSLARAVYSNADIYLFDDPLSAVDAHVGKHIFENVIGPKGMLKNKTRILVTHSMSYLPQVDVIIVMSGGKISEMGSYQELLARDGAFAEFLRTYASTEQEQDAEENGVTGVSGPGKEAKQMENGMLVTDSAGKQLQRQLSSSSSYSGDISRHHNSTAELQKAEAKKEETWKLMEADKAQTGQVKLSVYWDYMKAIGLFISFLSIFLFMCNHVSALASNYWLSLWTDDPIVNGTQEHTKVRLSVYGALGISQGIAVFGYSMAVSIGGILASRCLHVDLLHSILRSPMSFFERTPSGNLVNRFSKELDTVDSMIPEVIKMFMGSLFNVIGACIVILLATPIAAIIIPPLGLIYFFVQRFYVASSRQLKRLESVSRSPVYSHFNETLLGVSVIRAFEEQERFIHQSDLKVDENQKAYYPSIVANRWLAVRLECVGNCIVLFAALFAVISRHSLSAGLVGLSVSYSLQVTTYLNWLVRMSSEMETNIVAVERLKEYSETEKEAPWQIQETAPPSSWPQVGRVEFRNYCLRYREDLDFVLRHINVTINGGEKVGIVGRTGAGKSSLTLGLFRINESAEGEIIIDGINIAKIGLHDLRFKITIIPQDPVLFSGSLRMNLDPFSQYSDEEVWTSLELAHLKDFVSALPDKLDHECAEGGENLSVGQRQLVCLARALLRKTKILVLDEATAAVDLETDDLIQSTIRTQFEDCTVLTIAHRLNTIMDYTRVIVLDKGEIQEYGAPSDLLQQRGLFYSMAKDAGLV

ABCB1 [6] = target: T1, ABCB1; settings: 12-days exposure; MCF-10A; cited from earlier work

Cn1ncnc1[C@H]1c2n[nH]c(=O)c3cc(F)cc(c23)N[C@@H]1c1ccc(F)cc1 [talazoparib, Talazoparib]
effect on accumulations of probe substrate drugs (MDCKII-par cells): did not exhibit any significant effects
toxicity in MTT viability experiment (MCF-7 cells): negligibly toxic
ABCB1 substrate status (ABCB1 [1]): substrate of ABCB1
IC50 at 48 h (MTT proliferation assay): 67.5 µM
IC50 (ABCG2 [2]): 11.2 µM
IC50 (A431-ABCB1): 92.7 µM
effect on ABCG2 mRNA (ABCG2 [3]): upregulate
effect on ABCG2 protein level (ABCG2 [3]): decreased
effect on cytostatic efflux / accumulation ([4]; primary cultures with high expression of ABCG2/ABCC1): significantly inhibited cytostatic efflux
effect on cytostatic efflux / accumulation ([4]; primary cultures with low expression of ABCG2/ABCC1): insignificant accumulation changes
excretion [5]: a major fraction of the dose is excreted renally and biliary in unchanged form
extent of metabolism [5]: minimally metabolized
effect on ABCC1 mRNA (ABCC1): upregulate
effect on ABCC1 protein level (ABCC1): unchanged
effect on ABCB1 mRNA (ABCB1 [6]): upregulate
effect on ABCB1 protein level (ABCB1 [6]): fluctuating (concentration-dependent induction or downregulation)
